These results are taken from patent US8012935B2, “Synthetic peptides and methods for treating cancer invasion and metastasis” (priority 2002, dated 2011).

Test [1] relates to human melanoma cells A2058. In words: MATRIGEL invasion and migration by melanoma cells A2058. Format: cell-based. The procedure: The inhibitory effects of these oligopeptides on the MATRIGEL™ invasion and migration through the MATRIGEL™ membrane by various cancer cells were evaluated using “Improved MATRIGEL™ Invasion Chamber” (Becton Dickinson, USA).
(§1) The studies were conducted using “Improved MATRIGEL™ Invasion Chambers” (Becton Dickinson, USA).
(§2) In studies with human melanoma cells, human fibroblasts-NHDF (Clonetics) were seeded on MATRIGEL™ inserts and allowed to reach confluence. This was done to closely simulate in vivo conditions surrounding cancer cells in the body. Human melanoma cells A2058 were then seeded on the insert. Conditioned media from the fibroblast culture supplemented with various levels of chosen oligopeptide were added to the chamber. The system was incubated for about 24 hours. At the end of the period the cells on the upper surface of the insert were wiped off. The cells that had invaded the MATRIGEL™ membrane and had migrated to the lower surface of the insert were stained with “quick stain” and were counted under the microscope. […] The inhibitory activity of the control was considered as “0”. The media from invasion assays were saved for zymogram studies.

Test [2] deals with human breast cancer cells MCF7. Briefly: MATRIGEL invasion and migration by breast cancer cells MCF7. In kind it is cell-based. The conditions noted are these: for inhibition of MATRIGEL invasion: MCF7. The procedure: as §1, §2
(§3) In studies with human breast cancer cells MCF7 the procedure was essentially similar to that used for melanoma cells, except that MRC5 (ATCC) fibroblasts were used in place of NHDF.

For test [3], the system named is human breast cancer cells MDA-MB 231. Briefly: MATRIGEL invasion by breast cancer cells MDA-MB 231. Format: cell-based. The settings on record: 150 μM. The procedure:
as §1, §2, §3
In studies with human breast cancer cells MDA-MB 231 the fibroblast-MRC5 cells were plated in the wells. The rest of the procedure remained the same as in studies with MCF7 cells.

For test [4], the system named is MMP-2 secreted by the cancer cells. Briefly: Zymogram studies of media from invasion assays. The settings on record: zymogram gels. In kind it is cell-based, human. The procedure: as §2
The media (25-30 μl) from various wells in invasion studies were applied to NOVEX® zymogram gels (Invitrogen). The gels were developed and stained as recommended by the manufacturer. The matrix metalloproteinases (MMPs) were identified on the basis of their known molecular weights.

The mark [5] stands for this setting: comparison of oligopeptides (FIG. 2), concentration not given, about 24 hours.

Take GDVAPKTDKE (listed as Homo sapiens): the “inhibition of MATRIGEL invasion” value in test [1] (100 μM concentration) was “did not show any activity”.

For “PRKPKWDK (listed as Homo sapiens) [synthetic oligopeptide corresponding to amino acids 85 to 92 of MMP-2]”, the “inhibition of MATRIGEL invasion” value in test [1] (50 μM (FIG. 3)) is recorded as “about 37%”; in test [1] (100 μM concentration) it was 63%; in test [1] (150 μM (FIG. 3)), 73%; in test [1] (setting [5]) it was 73%; in test [2] (150 μM (FIG. 4)), “about 70%”; in test [2] (200 μM (FIG. 4)) it was “about 90%”. Besides, in test [3], the “inhibition of MATRIGEL invasion” value was “about 94%”. Moreover, the “inhibition of the invasion of cancer cells” value in test [2] (summary statement, cell line and concentration not stated) is reported as “about 90%”. Further, the “inhibitory effect on the amount of MMP-2 secreted” value in test [4] was “did not show any inhibitory effect”.

Turning to LPPDVQRVD (listed as Homo sapiens), in test [1] (setting [5]), the “inhibition of MATRIGEL invasion” value was “about 20%”.

Turning to “TMRKPRCGNPDVAN (listed as Homo sapiens) [reference compound]”, the “inhibition of MATRIGEL invasion” value in test [1] (setting [5]) is reported as “about 11%”.
